In US20260199255A1, “LIPID COMPOUNDS AND METHODS OF MAKING AND USE THEREOF” (Ohio State Innovation Foundation, priority 2022, published 2026):

What was measured:
Type in all cases: cell-based
[1] = tested on: Hep3B cell line; assay: luciferase mRNA delivery in the Hep3B cell line (in vitro LNP screening); conditions: LNPs of bile acid derived lipid, DOPE, cholesterol and DMG-PEG; mRNA-encoding firefly luciferase; Hep3B cell line (FIG. 2)
Procedure: (§1) Lipid nanoparticles (LNPs) with synthesized bile acid derived lipids, DOPE, cholesterol and DMG-PEG were prepared and screened in various cell lines using mRNA-encoding firefly luciferase (FIGS. 2-4).

[2] = tested on: C2C12 cell line; assay: luciferase mRNA delivery in the C2C12 cell line (in vitro LNP screening); conditions: LNPs of bile acid derived lipid, DOPE, cholesterol and DMG-PEG; mRNA-encoding firefly luciferase; C2C12 cell line (FIG. 4)
Procedure: as §1

[3] = tested on: JAWS2 cell line; assay: luciferase mRNA delivery in the JAWS2 cell line (in vitro LNP screening); conditions: LNPs of bile acid derived lipid, DOPE, cholesterol and DMG-PEG; mRNA-encoding firefly luciferase; JAWS2 cell line (FIG. 3)
Procedure: as §1

Row | SMILES | mRNA delivery efficiency [1] | mRNA delivery efficiency [2] | mRNA delivery efficiency [3]
1 | CCCCCCCCCCCCN(CCCCCCCCCCCC)CCCCCCNC(=O)CC[C@@H](C)[C@H]1CC[C@H]2[C@@H]3CC[C@@H]4C[C@H](O)CC[C@]4(C)[C@H]3C[C@H](O)[C@]12C [BAL6] | more effective mRNA delivery efficiency than other LNPs | – | –
2 | CCCCCCCCCCCCN(CCCCCCCCCCCC)CCN(CCCCCCCCCCCC)CCNC(=O)CC[C@@H](C)[C@H]1CC[C@H]2[C@@H]3[C@H](O)C[C@@H]4C[C@H](O)CC[C@]4(C)[C@H]3CC[C@]12C [BAL11] | – | high mRNA delivery efficiency | high mRNA delivery efficiency
3 | CCCCCCCCCCCCN(CCCCCCCCCCCC)CCN(CCCCCCCCCCCC)CCNC(=O)CC[C@@H](C)[C@H]1CC[C@H]2[C@@H]3CC[C@@H]4C[C@H](O)CC[C@]4(C)[C@H]3C[C@H](O)[C@]12C [BAL7] | – | high mRNA delivery efficiency | high mRNA delivery efficiency
